From patent US20160158200A1, “Combinations of Hepatitis C Virus Inhibitors” (priority 2013, published 2016)

Columns and labels:
[1] = system: HCV genotype 1a L31V variant with leucine 31 changed to valine in the NS5A protein; test: microbe, parasite or virus in culture; type: cell-based; conditions: genotype 1a L31V replicon; test compound titrated with compound N47 fixed at 200 nM versus singly
[2] = system: HCV genotype 1a Y93H variant with tyrosine 93 changed to histidine in the NS5A protein; test: microbe, parasite or virus in culture; type: cell-based; conditions: genotype 1a Y93H replicon; test compound titrated with compound N47 fixed at 200 nM versus singly
Procedure: Combinations can be examined for synergistic activity using a variety of putative NS5A-targeting compounds and a variety of test compounds. […] The test compound can be chosen from compounds exemplified below, which were prepared by methods known in the art, or from others disclosed in the literature.
Similarly, BMS-790052 can be tested singly and in combination with a fixed amount of compound N47 in the HCV replicon cell based assay consisting of the genotype 1a Y93H variant with tyrosine 93 changed to histidine in the NS5A protein.

SMILES	Fold-Synergistic G-1a (L31V) [1]	Fold-Synergistic G-1a (Y93H) [2]
COC(=O)N[C@H](C(=O)N1[C@@H]2C[C@@H]2C[C@H]1c1nc2ccc3cc(C#CC#Cc4ccc5c(ccc6nc([C@@H]7C[C@H]8C[C@H]8N7C(=O)[C@@H](NC(=O)OC)C(C)C)[nH]c65)c4)ccc3c2[nH]1)C(C)C	>10 fold	>10 fold
COC(=O)N[C@H](C(=O)N1CCC[C@H]1c1nc2c([nH]1)CCc1cc(C#Cc3ccc4[nH]c([C@@H]5CCCN5C(=O)[C@@H](NC(=O)OC)C(C)C)nc4c3)ccc1-2)C(C)C	>100 fold	>100 fold
COC(=O)N[C@H](C(=O)N1CCC[C@H]1C(=O)Nc1cc(-c2ncc(-c3ccc4nc([C@@H]5CCCN5C(=O)[C@@H](c5ccccc5)N(C)C)[nH]c4c3)o2)ccc1C)C(C)C	<10 fold	<10 fold
COC(=O)N[C@H](C(=O)N1CCC[C@H]1c1nc(C2=CCC(C3CC=C(c4c[nH]c([C@@H]5CCCN5C(=O)[C@@H](NC(=O)OC)C(C)C)n4)CC3)CC2)c[nH]1)C(C)C (some centres unmarked)	>100 fold	>100 fold
COC(=O)N[C@@H](C(=O)N1CCC[C@H]1c1nc2ccc(-c3ncc(-c4ccc(N5CCOCC5)cc4)o3)cc2[nH]1)c1ccccc1	<10 fold	<10 fold
COC(=O)N[C@H](C(=O)N1[C@@H]2C[C@@H]2C[C@H]1c1ncc(-c2ccc([C@H]3C[C@@H]3c3ccc(-c4cnc([C@@H]5C[C@H]6C[C@H]6N5C(=O)[C@@H](NC(=O)OC)C(C)C)[nH]4)cc3)cc2)[nH]1)C(C)C	>10 fold	<10 fold
COC(=O)N[C@H](C(=O)N1CC(F)(F)C[C@H]1c1nc(-c2ccc(-c3ccc(-c4c[nH]c([C@@H]5CC(F)(F)CN5C(=O)[C@@H](NC(=O)OC)C(C)C)n4)cc3)cc2)c[nH]1)C(C)C	>100 fold	>100 fold
COC(=O)NC(C(=O)N1[C@@H](C)CC[C@H]1c1ncc(-c2ccc(-c3cnc(-c4cnc([C@@H]5CC[C@H](C)N5C(=O)[C@@H](NC(=O)OC)[C@H]5C[C@@H](C)O[C@@H](C)C5)[nH]4)c4cccn34)cc2)[nH]1)[C@H]1C[C@@H](C)O[C@@H](C)C1 (some centres unmarked)	>10 fold	>100 fold
COC(=O)N[C@H](C(=O)N1CCC[C@H]1c1ncc(-c2ccc(-c3ccc(-c4cnc([C@@H]5CCCN5C(=O)[C@@H](NC(=O)OC)C(C)C)[nH]4)cc3)cc2)[nH]1)C(C)C	>100 fold	>100 fold
COC(=O)N[C@H](C(=O)N1[C@@H]2C[C@@H]2C[C@H]1c1nc(-c2ccc3cc(-c4ccc5cc(-c6c[nH]c([C@@H]7C[C@H]8C[C@H]8N7C(=O)[C@@H](NC(=O)OC)C(C)C)n6)ccc5c4)ccc3c2)c[nH]1)C(C)C	<10 fold	<10 fold
COC(=O)N[C@H](C(=O)N1[C@H](C)CC[C@H]1c1nc(-c2ccc(-c3ccc4cc(-c5c[nH]c([C@@H]6CC[C@@H](C)N6C(=O)[C@@H](NC(=O)OC)C(C)C)n5)ccc4c3)cc2)c[nH]1)C(C)C	>10 fold	<10 fold
COC(=O)N[C@H](C(=O)N1CCC[C@H]1c1ncc(-c2ccc(C#Cc3ccc4c(ccc5[nH]c([C@@H]6CCCN6C(=O)[C@@H](NC(=O)OC)C(C)C)nc54)c3)cc2)[nH]1)C(C)C	<10 fold	>100 fold
CN(C)[C@@H](C(=O)N1CCC[C@H]1c1nc(-c2ccc(COc3ccc(-c4c[nH]c([C@@H]5CCCN5C(=O)[C@@H](c5ccccc5)N(C)C)n4)cc3)cc2)c[nH]1)c1ccccc1	<10 fold	<10 fold
COC(=O)N[C@H](C(=O)N1CCC[C@H]1c1nc2cc(-c3ccc4ccc(-c5ccc6nc([C@@H]7CCCN7C(=O)[C@@H](NC(=O)OC)C(C)C)[nH]c6c5)cc4c3)ccc2[nH]1)C(C)C	>10 fold	>10 fold
COC(=O)N[C@H](C(=O)N1C2CC2CC[C@H]1c1ncc(-c2ccc(-c3ccc(-c4cnc([C@@H]5CCC6CC6N5C(=O)[C@@H](NC(=O)OC)C(C)C)[nH]4)cc3)cc2)[nH]1)C(C)C (some centres unmarked) [drawing 2298]	>100 fold	>100 fold
COC(=O)N[C@H](C(=O)N1CCCC1c1cn(-c2ccc(-c3ccc(-n4cnc(C5CCCN5C(=O)[C@@H](NC(=O)OC)C(C)C)c4)cc3)cc2)cn1)C(C)C (some centres unmarked)	>10 fold	>10 fold
COC(=O)N[C@H](C(=O)N1[C@H](c2ncc(-c3ccc(-c4ccc(-c5cnc([C@@H]6C[C@H](C)[C@H](C)N6C(=O)[C@@H](NC(=O)OC)C(C)C)[nH]5)cc4)cc3)[nH]2)C[C@H](C)[C@@H]1C)C(C)C	>100 fold	>100 fold

SMILES	Fold-Synergistic G-1a (L31V) [1]	Fold-Synergistic G-1a (Y93H) [2]
CN(C)[C@@H](C(=O)N1CCC[C@H]1C(=O)Nc1cccc(-c2ncc(-c3ccc4nc([C@@H]5CCCN5C(=O)[C@@H](c5ccccc5)N(C)C)[nH]c4c3)o2)c1)c1ccccc1	<10 fold	<10 fold
O=C1[C@@H]2CCCN2C(=O)C(c2ccccc2)N1c1ccc(/C=C/c2ccc(N3C(=O)[C@@H]4CCCN4C(=O)C3c3ccccc3)cc2)cc1 (some centres unmarked)	<10 fold	<10 fold
COC(=O)N[C@@H](C(=O)N1CCC[C@H]1c1ncc(-c2ccc(-c3ccc(-c4cnc([C@@H]5CCCN5C(=O)[C@H](NC(=O)OC)c5ccccc5)[nH]4)cc3)cc2)[nH]1)c1ccccc1	>10 fold	<10 fold
O=C(Nc1ccc(-c2nnc(-c3ccc(NC(=O)[C@@H]4CCCN4C(=O)Cc4cccnc4)cc3)o2)cc1)[C@@H]1CCCN1C(=O)Cc1cccnc1	<10 fold	<10 fold
COC(=O)N[C@H](C(=O)N1[C@H](c2ncc(-c3ccc(-c4ccc(-c5cnc([C@@H]6CCN(C)N6C(=O)[C@@H](NC(=O)OC)C(C)C)[nH]5)cc4)cc3)[nH]2)CCN1C)C(C)C	>100 fold	>100 fold
COC(=O)N[C@H](C(=O)N1CCC[C@H]1c1ncc(-c2cccc(C#Cc3cccc(-c4cnc([C@@H]5CCCN5C(=O)[C@@H](NC(=O)OC)C(C)C)[nH]4)c3)c2)[nH]1)C(C)C	>10 fold	>10 fold
COC(=O)N[C@H](C(=O)N1[C@@H]2C[C@@H]2C[C@H]1c1nc(Cl)c(-c2ccc(-c3ccc(-c4[nH]c([C@@H]5C[C@H]6C[C@H]6N5C(=O)[C@@H](NC(=O)OC)C(C)C)nc4Cl)cc3)cc2)[nH]1)C(C)C	>10 fold	<10 fold
COC(=O)N[C@H](C(=O)N1[C@@H]2C[C@@H]2C[C@H]1c1ncc(-c2ccc(-c3ccc4cc(-c5cnc([C@@H]6C[C@H]7C[C@H]7N6C(=O)[C@@H](NC(=O)OC)C(C)C)[nH]5)ccc4c3)cc2)[nH]1)C(C)C	<10 fold	>10 fold
COC(=O)N[C@H](C(=O)N1[C@@H]2C[C@@H]2C[C@H]1c1ncc(-c2ccc(-c3ccc(-c4cnc([C@@H]5C[C@H]6C[C@H]6N5C(=O)[C@@H](NC(=O)OC)C(C)C)[nH]4)cc3)cc2)[nH]1)C(C)C	>100 fold	>100 fold
COC(=O)N[C@H](C(=O)N1CCC[C@H]1c1nc(-c2cccc(-c3ccc4nc([C@@H]5CCCN5C(=O)[C@@H](NC(=O)OC)C(C)C)[nH]c4c3)c2)c[nH]1)C(C)C	<10 fold	<10 fold
COC(=O)N[C@H](C(=O)N1CCC[C@H]1c1ncc(-c2ccc(-c3ccc4c(c3)CCc3nc([C@@H]5CCCN5C(=O)[C@@H](NC(=O)OC)C(C)C)[nH]c3-4)cc2)[nH]1)C(C)C	>100 fold	>100 fold
COC(=O)N[C@H](C(=O)N1CCC[C@H]1c1nc(-c2ccc(C#Cc3ccc(-c4ccc(-c5c[nH]c([C@@H]6CCCN6C(=O)[C@@H](NC(=O)OC)C(C)C)n5)cc4)cc3)cc2)c[nH]1)C(C)C	<10 fold	<10 fold
Cc1nc2cccc(-c3ncc(-c4ccc5nc([C@@H]6CCCN6C(=O)[C@@H](c6ccccc6)N(C)C)[nH]c5c4)o3)c2[nH]1	<10 fold	<10 fold
CC[C@H](NC(=O)OC)C(=O)N1[C@@H]2C[C@@H]2C[C@H]1c1ncc(-c2ccc(C34CCC(c5cnc([C@@H]6C[C@H]7C[C@H]7N6C(=O)[C@H](CC)NC(=O)OC)[nH]5)(CC3)CC4)cc2)[nH]1	>100 fold	>100 fold
O=C1C(c2ccccc2)N(c2ccc(-c3cnc(-c4ccc(N5C(=O)C6CCCN6C(=O)C5c5ccccc5)cc4)o3)cc2)C(=O)C2CCCN12 (centres unmarked)	<10 fold	<10 fold
COC(=O)N[C@H](C(=O)N1[C@@H]2CC[C@@H]2C[C@H]1c1nc(-c2ccc(-c3ccc(-c4cnc([C@@H]5C[C@H]6CC[C@H]6N5C(=O)[C@@H](NC(=O)OC)C(C)C)[nH]4)cc3)cc2)c[nH]1)C(C)C	>100 fold	>100 fold
CN1CCN(C(C(=O)N2CCC[C@H]2C(=O)Nc2ccc(C#Cc3ccc(NC(=O)[C@@H]4CCCN4C(=O)C(c4ccccc4)N4CCN(C)CC4)cc3)cc2)c2ccccc2)CC1 (some centres unmarked)	<10 fold	<10 fold
